Here are results for nine compounds from article PMC9887672, “Predicting human cardiac QT alterations and pro-arrhythmic effects of compounds with a 3D beating heart-on-chip platform” (Toxicological Sciences, 2022).

For data set [1] the following is noted: cited from earlier work; for fETPC: free effective therapeutic plasma concentration, ref Nguyen et al. (2017), Yamazaki et al. (2018).
Data set [2] deals with uHeart 3D cardiac microtissues (h-iPSC-CMs and dermal fibroblasts in fibrin). In words: Drug screening on uHeart: field potential recording (FPDcF, BP, AMP, arrhythmic events, beating cessation). To be noted: for [%FPDcF] >LOW, drug concentration: concentration causing FPDcF change by 10% vs baseline; for Effect on beating period BP (in words) / Effect on spike amplitude AMP (in words) / Effect on FPDcF (in words): incremental doses; for TdP risk category proposed from uHeart score: score vs ratio effective concentration/fETPC, Figure 6D; for FPDcF alteration, direction, at [%FPDcF]>HIGH: threshold HIGH = 20% change vs baseline; for FPDcF alteration, direction, at [%FPDcF] >MID: threshold MID = 15% change vs baseline; for Arrhythmic events: detected (Y) or not (N) in uHeart; for Effect on FPDcF (in words): change vs baseline; for Arrhythmic events, lowest detected concentration: value in brackets in Table 2; for Concentration at which the described FPDcF change was seen: aspirine: increment just above LOW threshold, alfuzosin: slight shortening.
Procedure: Human adult dermal fibroblasts were provided by Lonza Group Ltd. H-iPSC-CMs were thawed according to standard protocols and immediately used. Fibroblasts were expanded at confluency in DMEM (Gibco, 4.5 g l^−1 glucose) supplemented with 10% v/v FBS, 100 U ml^−1 penicillin, 100 μg ml^−1 streptomycin, and 10 mmol HEPES and used at passage 10–11. […] Subsequently, 2 μl of cell solution was inoculated into the central channel of each chamber of the uBeat Platform (provided by BiomimX Srl). The hydrogel was cross-linked in the incubator at 37°C for 8 min before manually adding the plating medium (FUJIFILM Cellular Dynamics Inc.) supplemented with 100 U ml^−1 penicillin, 100 μg ml^−1 streptomycin, and 2 mg ml^−1 of 6-Aminocaproic acid (ACA). […] This medium was used and changed every day for the following 6 days.
Field potential (FP) measurements (Figure 1B) were performed after 6 or 7 days of culture, when the model expresses a strong spontaneous and synchronous beating. […] An AgCl ground electrode was inserted in one of the 4 cell culture medium reservoirs. Cell culture medium was changed at least 1 h prior to perform the measurements. To execute the tests, uHeart was maintained in the incubator at 37°C with 5% CO2 and the electrodes were connected to an extracellular amplifier (Ext-02b, Npi Electronic GmbH, Germany) with a 1 × 10^4 gain and a bandpass filter between 0.3 Hz and 10 kHz. FPs were acquired with an electronic board (Analog Discovery 2, Digilent, Washington) at a rate of 2000 samples s^−1.
The cell culture medium was exchanged with fresh serum-free RPMI medium and after 1 h the baseline FP signal was recorded for at least 3 min. Subsequently, the lowest drug dose was administered to the microtissues and incubated at 37°C for 10–20 min before recording the corresponding FP for at least 3 min. Between each incremental dose, a 5-min washing was performed with serum-free RPMI medium.
Results of BP, FPD, and AMP assessed by the algorithm were compared against manual measurement. BP and FPD were additionally analyzed by applying an initial bandwidth filter to the signal (3rd order Butterworth filter, 0.67–100 Hz, zero phase), to further verify the quality of the estimates obtained. After the validation, the algorithm was used to analyze the FP signal recorded during the pharmacological campaign. Signals not correctly recognized by the software, as verified by visual inspection on the user interface, were manually analyzed.
For compounds not evoking responses, the maximum tested concentration respect to the fETPC was used.
A quality control was established to select the signals to be considered for the evaluation of electrophysiological parameters changes in response to increasing concentrations of compounds. […] This inclusion criteria ensured that the developed cardiac microtissues spontaneously beat in a consistent way and allowed to normalize the obtained FP signals with correction methods based on the beating frequency.

For data set [3] the following is noted: TdP risk category; ref Blinova et al., 2017; cited from earlier work.
On the set-up of data set [4]: method as in Mair et al., 2022. The conditions noted are these: long incubation, after 7 days; ref Mair et al., 2022; cited from earlier work.
[5] abbreviates: clinical highest blood drug concentration, ref Blinova et al. (2017), Kopljar et al. (2018), Voelker and Hammer (2012).

“Also recorded” adds a separate entry of the source. Like-named read-outs stand apart in the source and are kept apart here.

For `Cc1cccc(C)c1OCC(C)N` (stereo not shown) [Mexiletine], the fETPC in data set [1] was 2.5 µM. Further, the “Concentration at which AMP statistically decreased” value in data set [2] (already at medium concentration) was determined as 10000 nM. In addition, in data set [2], the “[%FPDcF] >LOW, drug concentration” value is 50 µM; the “Effect on beating period BP (in words)” value was “did not show a trend in altering neither the FPDcF nor the BP; also recorded: without majorly affecting the FPDcF or the BP”; the “Effect on spike amplitude AMP (in words)” value is listed as “statistically decreased in a concentration-dependent way; also recorded: dose-related statistically significant reduction of the FP amplitude”; the “TdP risk category proposed from uHeart score” value (shortened to “TdP risk category proposed”) is given as “low-risk”. For the same compound, in data set [2], the “FPDcF alteration, direction, at [%FPDcF]>HIGH” value was “↔ [drawing 21]” and the “FPDcF alteration, direction, at [%FPDcF] >MID” value was “↔ [drawing 20]”.
As to `COc1ccccc1OCC(O)CN1CCN(CC(=O)Nc2c(C)cccc2C)CC1` (stereo not shown) [Ranolazine], in data set [2], the “Arrhythmic events, percentage of uHearts affected” value (from here on “Arrhythmic events, percentage”) stood at 20%; the “Effect on beating period BP (in words)” value is recorded as “increase the BP”; the “Effect on FPDcF (in words)” value is listed as “statistically enhanced the repolarization time; also recorded: prolonged the FPDcF; also recorded: dose-related FPDcF prolongation”; the “TdP risk category proposed” value is recorded as “high-risk”. For the same compound, in data set [2] (also in words), the Arrhythmic events entry is recorded as “generated arrhythmia; also recorded: caused arrhythmic beating”. Also, in data set [2] (listed as ranolazine), the “Effect on beating period BP (in words)” value is “rose the BP”.
For the compound `C=C[C@H]1C[N@@]2CC[C@H]1C[C@@H]2[C@@H](O)c1ccnc2ccc(OC)cc12` [Quinidine], the maximum concentration (Cmax) in data set [1] (setting [5]) is 3000 nM. Also, in data set [1], the fETPC was 3 µM. Also, in data set [2], the “Arrhythmic events, percentage” value is listed as 50%; the “[%FPDcF] >LOW, drug concentration” value was 0.06 µM; the “Effect on beating period BP (in words)” value was “slightly increased the BP”; the “Effect on FPDcF (in words)” value was “prolonged the FPDcF above the defined thresholds; also recorded: dose-related FPDcF prolongation”. Also, in data set [2], the “TdP risk category proposed” value is “high risk” and the “Arrhythmic events, lowest detected concentration” value was 0.1 µM. For the same compound, in data set [2] (concentration causing FPDcF change by 15% vs baseline), the “[%FPDcF] >MID, drug concentration” value stood at 1 µM. The “[%FPDcF]>HIGH, drug concentration” value in data set [2] (concentration causing FPDcF change by 20% vs baseline) was found to be 10 µM. Moreover, in data set [2] (also in words), the Arrhythmic events entry is listed as “Arrhythmic events were detected”.
Turning to `CN(CCOc1ccc(NS(C)(=O)=O)cc1)CCc1ccc(NS(C)(=O)=O)cc1` [Dofetilide], in data set [2], the “Arrhythmic events, percentage” value came to 66%; the “Stop, percentage of uHearts” value turned out to be 33%; the “uHearts that ceased beating over uHearts tested” value is recorded as 1 over 3; the “Effect on beating period BP (in words)” value is recorded as “slightly increased the BP”. Also, in data set [2], the “Effect on spike amplitude AMP (in words)” value was “incremental decrease in the AMP”, the “Effect on FPDcF (in words)” value is recorded as “concentration-dependent prolongation of the FPDcF” and the “TdP risk category proposed” value is “high risk”. The Arrhythmic events entry in data set [2] (also in words) was “Arrhythmic events were detected”. The “Effect on FPDcF (in words)” value in data set [2] (listed as dofetilide) was “prolonged the FPDcF above the defined thresholds; also recorded: dose-related FPDcF prolongation”.
As to `CC(C)NCC(O)c1ccc(NS(C)(=O)=O)cc1` (stereo not shown) [Sotalol], the Arrhythmic events result in data set [2] (also in words) was “did not elicit any arrhythmia; also recorded: not found to provoke arrhythmic events”. In data set [2], the “Effect on beating period BP (in words)” value was “slightly increased the BP; also recorded: drug dose dependent increase of the BP”, the “Effect on FPDcF (in words)” value was “prolonged the FPDcF above the defined thresholds; also recorded: dose-related FPDcF prolongation” and the “TdP risk category proposed” value is recorded as “high risk”.
Take `CC(=O)Oc1ccccc1C(=O)O` [Aspirin]: in data set [1] (setting [5]), the peak concentration (Cmax) is 24400 nM. Moreover, the fETPC in data set [1] was 7.1 µM. Further, in data set [2], the “Concentration at which the described FPDcF change was seen” value stood at 300000 nM; the “Effect on FPDcF (in words)” value is given as “did not change the FPDcF”; the “TdP risk category proposed” value was “low-risk”; the “FPDcF alteration, direction, at [%FPDcF]>HIGH” value was “↔ [drawing 33]”. In addition, in data set [2], the “FPDcF alteration, direction, at [%FPDcF] >MID” value is “↔ [drawing 32]”. Moreover, the “Effect on FPDcF (in words)” value in data set [2] (listed as aspirine) was “increment of the FPDcF just above the LOW threshold only at the highest concentration tested”. In addition, in data set [2] (threshold LOW = 10% change vs baseline), the “FPDcF alteration, direction, at [%FPDcF] >LOW” value was “↔ [drawing 31]”.
Regarding `COc1cc(N)c(Cl)cc1C(=O)NC1CCN(CCCOc2ccc(F)cc2)CC1OC` (stereo not shown) [Cisapride], the “Risk CiPa” value in data set [3] is given as “I”. In data set [2], the “Arrhythmic events, percentage” value is recorded as 50%; the “Stop, percentage of uHearts” value was determined as 25%; the “uHearts that ceased beating over uHearts tested” value is on record as 2 over 4; the “Effect on FPDcF (in words)” value is “slightly decrease in the FPDcF; also recorded: shortened the repolarization time at all considered thresholds; also recorded: did not revealed a FPDcF prolongation”. Further, in data set [2], the “TdP risk category proposed” value is “high risk”. Further, the “Stop (spontaneous beating cessation)” value in data set [2] (Y or N, also in words) is recorded as “interrupted the spontaneous beating of microtissues”. The Arrhythmic events result in data set [2] (also in words) was “caused arrhythmic beats”.
Turning to `COc1cc2nc(N(C)CCCNC(=O)C3CCCO3)nc(N)c2cc1OC` (stereo not shown) [Alfuzosin], in data set [1] (setting [5]), the Cmax is 15 nM. Also, the fETPC in data set [1] was 0.01 µM. Moreover, in data set [2], the “Concentration at which the described FPDcF change was seen” value was 300 nM; the “[%FPDcF] >LOW, drug concentration” value was 0.3 µM; the “Effect on FPDcF (in words)” value is listed as “did not showed a peculiar trend”; the “TdP risk category proposed” value is reported as “low-risk”. Further, in data set [2], the “FPDcF alteration, direction, at [%FPDcF]>HIGH” value was “↔ [drawing 30]” and the “FPDcF alteration, direction, at [%FPDcF] >MID” value is “↔ [drawing 29]”. This compound also displayed an FPDcF prolongation in data set [2] (at high concentration (ie,100 µM)) of about 10%. In data set [2] (also in words), the Arrhythmic events result was “caused arrhythmic beating”. Also, in data set [2] (listed as alfuzosin), the “Effect on FPDcF (in words)” value is given as “shortening”.
As to `CC(C)(C)c1ccc(C(O)CCCN2CCC(C(O)(c3ccccc3)c3ccccc3)CC2)cc1` (stereo not shown) [Terfenadine], the “Reduction of compound by absorption in PDMS” value in data set [4] was “about 20%”. Moreover, the peak concentration (Cmax) in data set [1] (setting [5]) is 0.29 nM. In addition, in data set [1], the fETPC was 0.00029 µM. The “fETPC in the presence of metabolic inhibition” value in data set [1] (patients, cytochrome P450 inhibitor, ref Redfern et al., 2003) was “about 4 nM”. Further, the Cmax in data set [1] (read-out: Cmax or fETPC, clinical value of patients, ref Ando et al., 2017) was 0.29 nM. In data set [2], the “Arrhythmic events, percentage” value amounted to 60%; the “Effect on beating period BP (in words)” value is listed as “without affecting the BP”; the “Effect on FPDcF (in words)” value is reported as “statistically prolonged the FPDcF at high dosages; also recorded: prolongation of the FPDcF”; the “TdP risk category proposed” value was “high risk”. For the same compound, the “Arrhythmic events, lowest detected concentration” value in data set [2] is given as 0.001 µM. Further, the “Concentration at which FPDcF was statistically prolonged” value in data set [2] (Kruskal-Wallis with Dunn's test) came out at 300 nM. Besides, in data set [2] (as quoted in Discussion), the “Concentration found effective in uHeart” value was 100000 nM. Besides, in data set [2] (also in words), the Arrhythmic events entry is listed as “arrhythmic events”.
